In general, ED50 refers to the dose at which the effect has come halfway, by size or by number of responders. For orientation: EC50 means the concentration needed to bring the measured effect to its halfway point. Higher therefore signals lower potency in that assay.

The record followed here is patent US10597378B2 (priority 2017, dated 2020).

Data set [1] relates to B6 mice. As to the kind of experiment: Cardiovascular function test (tail cuff plethysmography). The conditions noted are these: acute, equi-antinociceptive doses.
The nature of data set [2]: Charcoal meal test (gastrointestinal transit). The conditions noted are these: B6, mouse, in vivo, sc. On the procedure:
(§1) B6 mice were fasted for at least 16 h before the study with free access to water. In a charcoal meal test, various doses of drugs were administered to the mice 30 min prior to the administration of an aqueous activated charcoal suspension (10% activated charcoal+5% gum Arabic; 0.3 mL). After 30 min, the mice were euthanized by intraperitoneal administration of a ketamine/xylazine cocktail (Sigma) followed by cervical dislocation and the total length of migration of the charcoal meal was measured from the pylorus to the ileocecal junction of the small intestine. The length of the intestine from pylorus to the caecum and the distance traveled by the charcoal were measured. The migration index was expressed as percentage of the distance traveled by the peristaltic charcoal meal relative to the total length of the small intestine, calculated according to the following formula. % of Gastrointestinal transit=Distance Travelled by Charcoal Meal/Full Length of the Small Intestine×100%
(§2) Gastrointestinal propulsion was calculated as the percentage of the distance travelled by the charcoal meal relative to the total length of the small intestine, to control for individual variations. The percentage inhibition relative to the control was also calculated as: % Gastrointestinal Inhibition (GI)=(Control group−Drug-treated group)/Control group×100% […]

For data set [3], the system named is B6 mice. As to the kind of experiment: Charcoal meal test (gastrointestinal transit). The following applies: equianalgesic doses. On the procedure:
as §1, §2

In data set [4] the target is T1, MOR (Homo sapiens, UniProt P35372). The experiment in a line: cell-based. More on the design: host or cells: CHO-K1 (CHO-K1-MOR). On the procedure:
The PathHunter G protein-coupled receptor β-arrestin-2 assay (DiscoveRx) was performed according to the manufacturer's protocol. Briefly, when β-arrestin-2 translocates to the active receptor, complementary β-galactosidase fragments fused to the receptor and β-arrestin-2 interact to form a functional enzyme, which can be detected by chemiluminescence.
Cells (5,000 per well) were then seeded in black 384-well assay plates with a CP2 reagent (DiscoveRx) and incubated for 24 h before running the assay. After each treatment, cells were incubated at room temperature for 1.5 h, followed by the addition of 8 μl of the PathHunter Detection reagent (DiscoveRx) and incubated for 1 h. Luminescence was detected using a Victor 2 plate reader. Studies were performed on the same day and the same passage of cells was used to ensure accurate comparisons of data.
Opioid receptors have been reported to couple to G protein-independent β-arrestin-2-mediated pathways. […] The potency of the above three molecules in a β-arrestin-2 recruitment assay (PathHunter), which was based on enzyme complementation in Chinese hamster ovary (CHO)-K1 cells expressing human MOR (CHO-K1-MOR), was further examined.

The test system of data set [5] is wild-type C57BL/6 (B6) mice. As to the kind of experiment: Tail flick test (acute thermal pain). The format is in vivo, mouse.
In data set [6] the test system is mice. As to the kind of experiment: Conditioned place preference (CPP) test, reinstatement of morphine CPP. The following applies: challenge on reinstatement day (Day 21).
Another data set addresses T2, human mu-opioid receptor (Homo sapiens, UniProt P35372).
T2 construct: expressed in transfected cells; host or cells: HEK-293 (HEK-MOR), kept under G418
The experiment in a line: cell-based. The format is cell-based. On the procedure:
Cells (72,000 per well) were plated in 100 μl/well of DMEM in 96-well solid-bottom white plates (GIBCO) and 50 μl/well of drug in HBSS in the presence of forskolin and 3-isobutyl-1-methylxanthine at final concentrations of 1 μM and 500 μM, respectively. After 30 min of incubation at room temperature, the concentration of cyclic adenosine monophosphate was determined using a LANCE Ultra cAMP Assay kit (PerkinElmer).
As MOR belongs to the GPCR family, activation of MOR leads to a decrease in intracellular cAMP level.

The subject of data set [7] is melanoma cell-implanted B6 mice. As to the kind of experiment: Cancer-induced pain (B16-F1 melanoma), mechanical allodynia (Von Frey test). Type of data set: in vivo, mouse. On the procedure:
To induce neuropathic pain, each B6 mouse was intraperitoneally injected with either oxaliplatin (3.0 mg/kg), or vehicle (saline) after habituation to the test environment and baseline measurements of pain sensitivity. […] To induce cancer pain, each B6 mouse was injected with either 20 μL phosphate-buffered saline or cells (6×10^5 cells/20 μL phosphate-buffered saline) in the footpad of the right hind paw under isoflurane anesthesia on post-inoculation day 0. […] […] The tests were initiated with 0.5 g force. Briefly, whenever a withdrawal response occurred, the next weaker von Frey filament was applied. On the other hand, whenever no withdrawal response occurred, the next stronger filament was applied. Mechanical allodynia was defined as changes in the amount of pressure to induce the hind paw withdrawal.
The cold allodynia was tested using acetone drop test and mechanical allodynia was measured using the Von Frey test to examine the antinociceptive effects of each drug treatment.

Data set [8] deals with mice. As to the kind of experiment: Tolerance and cross-tolerance, tail-flick test after 5 days twice-daily treatment. The conditions noted are these: day 6, equianalgesic dose. The format is in vivo, mouse. (In general: Thermal pain tests record how soon the animal reacts.)
Data set [9] has as its system B6 mice. As to the kind of experiment: Respiratory function test. The conditions noted are these: acute, equi-antinociceptive doses, 10-60 min.
The target of data set [10] is T1, MOR. Type of data set: cell-based. More on the design: host or cells: CHO-K1 (CHO-K1-MOR).

T1 sequence (P35372 whole entry, the tested form may be a part): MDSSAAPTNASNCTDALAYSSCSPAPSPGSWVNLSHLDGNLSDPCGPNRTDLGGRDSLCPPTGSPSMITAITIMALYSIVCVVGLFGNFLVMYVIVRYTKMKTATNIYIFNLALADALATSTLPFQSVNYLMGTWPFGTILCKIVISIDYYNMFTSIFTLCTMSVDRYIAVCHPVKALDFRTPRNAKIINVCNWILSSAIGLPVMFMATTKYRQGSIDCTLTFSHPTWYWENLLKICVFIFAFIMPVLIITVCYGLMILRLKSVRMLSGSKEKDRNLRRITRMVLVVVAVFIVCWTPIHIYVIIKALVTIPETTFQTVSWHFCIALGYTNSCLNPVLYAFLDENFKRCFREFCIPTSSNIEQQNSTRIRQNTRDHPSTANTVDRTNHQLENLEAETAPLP
T2 sequence (P35372 whole entry): as the sequence (P35372 whole entry, the tested form may be a part) above

In the case of `CN1CCc2ccccc2C1CNC(=O)c1ccc(Cl)c(Cl)c1` (centres unmarked) [Compound 67, 3,4-Dichloro-N-[(2-methyl-1,2,3,4-tetrahydro-1-isoquinolinyl)methyl]benzamide], in the data set on B6 mice [1], the cardiovascular function entry is “minimal effect on cardiovascular function”. Also, the 50% effect level in [2] (ED50 at 60 min) was put at a dose of 1.6 mg/kg. Besides, the gastrointestinal dysfunction result with B6 mice [3] is reported as “less gastrointestinal dysfunction than morphine”. On MOR [4], the EC50 came to 1900 nM; the “Emax of β-arrestin recruitment relative to morphine” value came out at 3 fold; the “β-arrestin recruitment, comparison” value is “more β-arrestin recruitment than that in morphine but induced less β-arrestin recruitment than Met-5”. The ED50 in data set [5] (Mus musculus, sc, single subcutaneous injection, read-out: ED50 of antinociception) turned out to be 0.78 mg/kg. The “time at which analgesic effects were exerted after acute injection” value in data set [5] (equi-antinociceptive doses, B6 mice) is 10 min. Moreover, in data set [5] (single dose subcutaneous injection, 30-120 min), the “antinociception (% of MPE, AUC)” value is “produced equi-antinociceptive effects at doses of 0.6-1.8 mg/kg”. For the same compound, the “reinstatement of morphine CPP” value in the data set with mice [6] is given as “not Compound 67”. For the same compound, on human mu-opioid receptor, it took 0.63 nM to reach a half-maximal effect (EC50) and the cAMP production result was “significantly decreased cAMP production”. In addition, the “antinociceptive effect after twice daily injection” value in data set [7] (30 min on PID 21 and PID 23) is “more than that of morphine”. Further, in data set [7] (PID19, 30 min after treatment, equi-antinociceptive doses), the withdrawal threshold result was “greater than that of morphine”. Besides, the “antinociceptive effects on challenge in morphine-tolerant mice” value in the data set on mice [8] is on record as “significant increase in antinociceptive effects”. In the data set with B6 mice [9], the respiratory frequency result is given as “kept recovery of respiratory frequency after 30 min”. Also, the MOR internalization entry at MOR [10] is given as “approximately two-fold that of the maximal responses of morphine”.
